{
  "source": "patent US8846675B2",
  "about": "“N-linked heterocyclic receptor agonists for the treatment of diabetes and metabolic disorders” (Cymabay Therapeutics, Inc., priority 2007, dated 2014)",
  "target": "T1, IC-GPCR2 (Homo sapiens, UniProt Q8TDV5)",
  "T1 construct": "expressed in transfected cells",
  "T1 sequence (Q8TDV5 1-335 S309L)": "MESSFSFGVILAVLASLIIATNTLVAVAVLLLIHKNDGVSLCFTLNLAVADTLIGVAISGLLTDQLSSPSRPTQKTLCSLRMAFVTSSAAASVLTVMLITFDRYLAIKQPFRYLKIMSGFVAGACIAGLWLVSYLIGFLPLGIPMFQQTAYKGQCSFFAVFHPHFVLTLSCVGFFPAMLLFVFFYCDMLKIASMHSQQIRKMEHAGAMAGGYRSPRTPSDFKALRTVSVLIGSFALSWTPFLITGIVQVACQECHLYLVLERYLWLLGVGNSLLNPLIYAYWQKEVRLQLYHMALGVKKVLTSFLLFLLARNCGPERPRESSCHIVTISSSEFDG",
  "assay": "Stimulation of cAMP in CHO cell line stably expressing IC-GPCR2 (HTRF cAMP dynamic kit)",
  "assay_type": "cell-based",
  "conditions": "3 μM compound; relative to maximal activity of 5-Ethyl-2-{4-[4-(4-tetrazol-1-yl-phenoxymethyl)-thiazol-2-yl]-piperidin-1-yl}-pyrimidine (=100%); IC-GPCR2 stably expressing CHO cells, 30 minutes",
  "protocol": "This assay was developed using a stable cell line expressing IC-GPCR-2, generated as follows. IC-GPCR2 (Seq. ID No. 1) was cloned into Gateway pDEST 40vector (Invitrogen), using the Gateway cloning system (invitrogen) according to the manufacturers instructions. A stable cell line was generated by transfecting a 10 cm plate of CHO cells (source) with 8 ug of this construct using Transit-CHO transfection kit (Mirus). CHO cells were plated the day prior to transfection at a density of 3,000,000 cells/plate. Clones were selected using the antibiotic G418 at 500 ug/ml. 23 clones were picked and assayed for the expression of the receptor by measuring changes in intracellular cAMP levels in response to an IC-GPCR2 agonist (Arena 51).\nTo measure cAMP activity in response to IC-GPCR2 agonist, the clones were plated in 96 well plates at 17500 cells per well. On the day after plating, cells were incubated with the IC-CPCR2 agonist at […] for 30 minutes in Ham's F12 Media (Gibco) with 0.04% DMSO. cAMP was measured using the cAMP dynamic kit from C is Bio (Bedford, Mass.) according to the manufacturers instructions. Briefly, cells were lysed, and cAMP levels determined by competitive immunoassay using D2 labeled cAMP, and europium cryptate tagged anti cAMP antibody. When in close proximity, the D2 and europium cryptate undergo fluorescence resonance energy transfer (FRET), which is measured as a fluorescence ratio (665 nm/620 nm). Unlabelled cAMP in the cell lysatc competed with the D2 labeled cAMP for the europium crypate labeled antibody. The resulting decrease in FRET signal corresponded to intracellular cAMP levels. Fluorescence was read on a BMG Labtech PHERAstar, software version 1.50.\nThe clone with the greatest response to IC-GPCR2 agonist was selected for the screening assay.\nCompounds were dissolved in 100% DMSO to a concentration of […] to provide stock solutions. To determine activity against IC-GPCR2, compounds were incubated with IC-GPCR2 stably expressing cells (described above), at 6-8 concentrations ranging from 0.00003 to 10 micromolar, in 96 well plates, in 50 ul of Hams F12 media for 30 minutes. Cells were plated at 17500 cells per well 1 day before running the assay. All compounds were also screened against the parental CHO cells. cAMP was measured using the cAMP dynamic kit from Cis Bio (Bedford, Mass.), according to the manufacturer's instructions. Briefly, cells were lysed and cAMP levels determined by competitive immunoassay using D2 labeled cAMP, and europium cryptate tagged anti cAMP antibody. When in close proximity, the D2 and europium cryptate undergo fluorescence resonance energy transfer (FRET), which is measured as a fluorescence ratio (665 nm/620 nm). Unlabelled cAMP in the cell lysate competed with the D2 labeled cAMP for the europium crypate labeled antibody. The resulting decrease in FRET signal corresponded to intracellular cAMP levels\nTo determine percent activity for a tested compound, the FRET signal value obtained at a particular concentration are compared to the Maximal FRET signal value obtained for 5-Ethyl-2-{4-[4-(4-tetrazol-1-yl-phenoxymethyl)-thiazol-2-yl]-piperidin-1-yl}-pyrimidine. The maximal activity of 5-Ethyl-2-{4-[4-(4-tetrazol-1-yl-phenoxymethyl)-thiazol-2-yl]-piperidin-1-yl}-pyrimidine is designated as 100% activity. Typically, the concentration of 5-Ethyl-2-{4-[4-(4-tetrazol-1-yl-phenoxymethyl)-thiazol-2-yl]-piperidin-1-yl}-pyrimidine in the assay was approximately 0.1 μM. The synthesis of 5-Ethyl-2-{4-[4-(4-tetrazol-1-yl-phenoxymethyl)-thiazol-2-yl]-piperidin-1-yl}-pyrimidine is disclosed in co-owned pending U.S. patent application Ser. No. 11/964,461, herein incorporated by reference. Activities of compounds that were tested are shown in Table 1 below and are expressed as % activity at 3 μM compound compared to the maximal activity of 5-Ethyl-2-{4-[4-(4-tetrazol-1-yl-phenoxymethyl)-thiazol-2-yl]-piperidin-1-yl}-pyrimidine at 3 μM.",
  "note": "Where a name gives a salt, the structure may show the parent alone.",
  "data": [
    {"smiles": "Fc1cc(-n2cnnn2)ccc1OCc1cnn(C2CCN(c3ncc(C(F)(F)F)cn3)CC2)n1", "note": "[Example 15, 2-{4-[4-(2-Fluoro-4-tetrazol-1-yl-phenoxymethyl)-[1,2,3]triazol-2-yl]-piperidin-1-yl}-5-trifluoromethyl-pyrimidine]", "values": [
      {"measurement": "% activity at 3 μM", "value": 75.63, "unit": "%"}
    ]},
    {"smiles": "Clc1cnc(N2CCC(n3ncc(COc4ccc(-n5cnnn5)cc4)n3)CC2)nc1", "note": "[Example 88, 2-(4-(4-((4-(1H-Tetrazol-1-yl)phenoxy)methyl)-2H-1,2,3-triazol-2-yl)piperidin-1-yl)-5-chloropyrimidine]", "values": [
      {"measurement": "% activity at 3 μM", "value": 60.96, "unit": "%"}
    ]},
    {"smiles": "Cc1cnc(N2CCC(n3ncc(COc4ccc(-n5cnnn5)nc4)n3)C(C)C2)nc1", "note": "(stereo not shown) [Example 86, 2-(4-(4-((6-(1H-Tetrazol-1-yl)pyridin-3-yloxy)methyl)-2H-1,2,3-triazol-2-yl)-3-methylpiperidin-1-yl)-5-methylpyrimidine]", "values": [
      {"measurement": "% activity at 3 μM", "value": 71.39, "unit": "%"}
    ]},
    {"smiles": "O=C(c1cccc(O)n1)N1CCC(n2ncc(COc3ccc(-n4cnnn4)cc3F)n2)CC1", "note": "[Example 109, (4-(4-((2-Fluoro-4-(1H-tetrazol-1-yl)phenoxy)methyl)-2H-1,2,3-triazol-2-yl)piperidin-1-yl)(6-hydroxypyridin-2-yl)methanone]", "values": [
      {"measurement": "% activity at 3 μM", "value": 7.45, "unit": "%"}
    ]},
    {"smiles": "Fc1cnc(N2CCC(n3ncc(COc4ccc(-n5cnnn5)cc4F)n3)CC2)nc1", "note": "[Example 30, 5-Fluoro-2-(4-(4-((2-fluoro-4-(1H-tetrazol-1-yl)phenoxy)methyl)-2H-1,2,3-triazol-2-yl)piperidin-1-yl)pyrimidine]", "values": [
      {"measurement": "% activity at 3 μM", "value": 53.41, "unit": "%"}
    ]},
    {"smiles": "O=C(c1cnc(N2CCC(n3ncc(COc4ccc(-n5cnnn5)nc4)n3)CC2)nc1)N1CCOCC1", "note": "[Example 61]", "values": [
      {"measurement": "% activity at 3 μM", "value": 43.59, "unit": "%"}
    ]},
    {"smiles": "CC(C)(C)OC(=O)N1CCC(n2cc(COc3ccc(-n4cnnn4)cc3F)cn2)CC1", "note": "[Example 7, 4-[4-(2-Fluoro-4-tetrazol-1-yl-phenoxymethyl)-pyrazol-1-yl]-piperidine-1-carboxylic acid tert-butyl ester]", "values": [
      {"measurement": "% activity at 3 μM", "value": 78.16, "unit": "%"}
    ]},
    {"smiles": "C=CCOC(=O)N1CCC(n2ncc(COc3ccc(-n4cnnn4)nc3)n2)CC1", "note": "[Example 77, Allyl 4-(4-((6-(1H-tetrazol-1-yl)pyridin-3-yloxy)methyl)-2H-1,2,3-triazol-2-yl)piperidine-1-carboxylate]", "values": [
      {"measurement": "% activity at 3 μM", "value": 69.86, "unit": "%"}
    ]},
    {"smiles": "FC(F)(F)c1cnc(N2CCC(n3ncc(COc4ccc(-n5cnnn5)nc4)n3)CC2)nc1", "note": "[Example 22, 2-{4-[4-(6-Tetrazol-1-yl-pyridin-3-yloxymethyl)-[1,2,3]triazol-2-yl]-piperidin-1-yl}-5-trifluoromethyl-pyrimidine]", "values": [
      {"measurement": "% activity at 3 μM", "value": 78.44, "unit": "%"}
    ]},
    {"smiles": "O=S(=O)(C1CCCCC1)N1CCC(n2ncc(COc3ccc(-n4cnnn4)nc3)n2)CC1", "note": "[Example 44, 5-((2-(1-(Cyclohexylsulfonyl)piperidin-4-yl)-2H-1,2,3-triazol-4-yl)methoxy)-2-(1H-tetrazol-1-yl)pyridine]", "values": [
      {"measurement": "% activity at 3 μM", "value": 70.92, "unit": "%"}
    ]},
    {"smiles": "CC(C)COC(=O)N1CCC(n2ncc(COc3ccc(S(C)(=O)=O)cc3F)n2)CC1", "note": "[Example 103, Isobutyl 4-(4-((2-fluoro-4-(methylsulfonyl)phenoxy)methyl)-2H-1,2,3-triazol-2-yl)piperidine-1-carboxylate]", "values": [
      {"measurement": "% activity at 3 μM", "value": 51.30, "unit": "%"}
    ]},
    {"smiles": "N[C@H](CC(=O)N1CCC(n2ncc(COc3ccc(-n4cnnn4)nc3)n2)CC1)Cc1cc(F)c(F)cc1F", "note": "[Example 57, (S)-1-(4-(4-((6-(1H-tetrazol-1-yl)pyridin-3-yloxy)methyl)-2H-1,2,3-triazol-2-yl)piperidin-1-yl)-3-amino-4-(2,4,5-trifluorophenyl)butan-1-one hydrochloride]", "values": [
      {"measurement": "% activity at 3 μM", "value": 27.80, "unit": "%"}
    ]},
    {"smiles": "CCc1cnc(N2CCC(n3ccc(COc4ccc(-n5cnnn5)cc4F)n3)CC2)nc1", "note": "[Example 113, 5-Ethyl-2-(4-(3-((2-fluoro-4-(1H-tetrazol-1-yl)phenoxy)methyl)-1H-pyrazol-1-yl)piperidin-1-yl)pyrimidine]", "values": [
      {"measurement": "% activity at 3 μM", "value": 57.71, "unit": "%"}
    ]}
  ]
}
